Entries after “also recorded” stand apart in the source; their conditions may differ.
Assays:
[1] = test system: p-AKT and p-ERK (PI3K and MAP Kinase pathways) in epithelial cells of bladder washes; assay: SCNP of bladder wash samples: p-AKT and p-ERK at baseline and after EGF +/- GDC-0941; format: cell-based, human
Procedure: Bladder washes from non-cancer (NC) patients (pts) (n=8) and confirmed/suspected bladder cancer (BC) pts (n=20) were collected using standard medical practice and shipped overnight on ice for processing within 24 hours. Antibodies against CD45, Cytokeratin (CK), and EpCAM were used to differentiate epithelial cells from leukocytes, while measurements of DNA aneuploidy (DAPI stain) allowed for distinction between tumor and normal epithelial cells. Signaling activity in the PI3K and MAP Kinase pathways was assessed by measuring intracellular levels of p-AKT and p-ERK both at baseline and in response to pathway modulation. A process similar to that shown in Example 1 was used.
(§1) Upon delivery, cells were pelleted, counted, rested for 1 hr at 37° C., followed by a 5 minute stimulation with EGF or vehicle+/−GDC-0941 200 nM added 1 hr prior to EGF addition to inhibit PI3K signaling After cell fixation and permeabilization, samples were stained with fluorophore-conjugated antibodies/DAPI cocktail, and the data acquired using multi-parametric flow cytometry. The epithelial bladder carcinoma cell line HT-1376 was used as a control for the epithelial phenotype and EGF signaling. A DNA index was determined using the lymphoid population in the pt samples as a diploid G0/G1 reference.

[2] = test system: p-AKT and p-ERK in epithelial cells of pleural effusion; assay: SCNP of pleural effusion, patient MCSF-04 (non-small cell lung cancer): p-AKT and p-ERK; format: cell-based, human
Procedure: A procedure similar to that shown for Example 1 was performed. A pleural effusion was obtained from a patient (MCSF-04) with a diagnosis of non-small cell lung cancer with a white cell count of 21 million.
(§2) Purpose: (1) Evaluate ability to detect epithelial cells in the pleural effusion sample. (2) Measure DNA content to evaluate whether detected cells are possibly originating from the tumor (aneuploid). (3) measure basal level p-AKT and p-ERK signaling in epithelial cells. (4) Measure evoked signaling after EGF stimulation in the same cell populations. (5) Measure signaling inhibition when the EGF is added after incubation with a PI3K inhibitor (GDC-0941). (6) Culture cells in the presence and absence of EGF to observe possible growth promoting effects and to potentially characterize the signaling of cells that expand.
Gating Scheme: The epithelial phenotype is based on the cells being positive for EpCAM and Cytokeratin stains, while expressing low levels of CD45.
SCNP contour plots show signaling in the epithelial cell compartment only. […] EGF stimulation (5 min., 37° C.) activates the PI3K and Ras/MEK pathways which are measured by p-AKT and p-ERK respectively. Attenuation of the EGF→p-AKT induced signaling in the presence of GDC-0941.

[3] = test system: p-AKT and p-ERK in epithelial cells of ascites fluid; assay: SCNP of ascites fluid, patient MCSF-02 (biliary cancer): p-AKT and p-ERK; format: cell-based, human
Procedure: A procedure similar to that shown for Example 5 was performed. Ascites fluid was obtained from a patient (MCSF-02) with a diagnosis of biliary cancer with a white cell count of 4.3 million. This example has the same purpose as Example 5 as applied to ascites fluid.
Gating Scheme: The epithelial phenotype is based on the cells being positive for EpCAM and cytokeratin, while expressing low levels of CD45. Positive staining for cleaved PARP (c-PARP) indicates apoptosis. DNA index: The DNA index of the epithelial cells is based on the DNA content of the cells in the epithelial gate divided by the DNA content of the lymphocytes.
The biliary specimen contained 0.17% epithelial cells that were mostly non-apoptotic. This small percentage equates to ˜10 cells/condition. From this small population EGF induced p-AKT signaling was observed. A 9-fold increase in p-AKT levels were observed after […]. EGF stimulation. Induced signaling was attenuated with a 1 hour pre-incubation with 200 nM GDC-0941 (“GDC”). […] This is in contrast to the control cell line.

[4] = test system: p-AKT and p-ERK in epithelial cells of pleural effusion; assay: SCNP of pleural effusion, patient MCSF-06 (non-small cell lung cancer): p-Akt and p-ERK; format: cell-based, human
Procedure: A procedure similar to that shown for Example 5 was performed. A pleural effusion was obtained from a patient (MCSF-06) with a diagnosis of non-small cell lung cancer with a white cell count of 6.8 million. This example has the same Purpose as Example 5 as applied to lung cancer. The HT-1376 epithelial bladder cancer cell line served as a positive control for EGF induced signaling.
SCNP contour plots identify p-Akt and p-ERK signaling in the epithelial cell compartment only. […] EGF stimulation (5 min., 37° C.) activates the PI3K and Ras/MEK pathways which are measured by p-Akt and p-ERK respectively. […] Median fluorescent values of p-Akt and p-ERK under each treatment condition (see FIG. 5). The control cell line was processed in parallel with the patient sample.

[5] = test system: p-AKT and p-ERK in epithelial cells of pleural effusion; assay: SCNP of pleural effusion, patient MCSF-015 (non-small cell lung cancer): p-AKT and p-ERK; format: cell-based, human
Procedure: A procedure similar to that shown for Example 5 was performed. A pleural effusion was obtained from a patient (MCSF-015) with a diagnosis of non-small cell lung cancer with a white cell count of 150 million.
The HT-1376 epithelial bladder cancer cell line served as a positive control for EGF induced signaling. The control cell line was processed in parallel with the patient sample.
SCNP contour plots identify p-AKT and p-ERK signaling in the epithelial cell compartment only. […] EGF stimulation (5 min., 37° C.) activates the PI3K and Ras/MEK pathways which are measured by p-Akt and p-ERK respectively. […] Median fluorescent values of p-AKT and p-ERK under each treatment condition.

[6] = test system: EGF signaling in epithelial cells of ascites or pleural effusion samples; assay: Summary of SCNP analysis of ascites or pleural effusion samples; format: cell-based, human
Text: This analysis identified epithelial cells with inducible EGF signaling in ⅘ ascites or pleural effusion samples. In each of the 4 positive cases, induced signaling was inhibited by the PI3K inhibitor, GDC-0941.

MDS patients = settings: cited from earlier work
HT-1376 cells = assay: HT-1376 bladder cancer cells spiked into whole blood, EGF-induced pAKT and pERK; format: cell-based; settings: HT-1376 in whole blood; 200 ng/mL EGF for 5 minutes at 37° C.
Procedure: A procedure similar to that shown for Example 1 was performed.
Two aliquots of 1 million cells from a bladder cancer cell line, HT-1376, were spiked into 4 mls of whole blood in an effort to determine a lower limit of detection for bladder cancer cells in blood. The epithelial cell line, HT-1376 (ATCC #CRL-1472), which has high (positive) levels of cytokeratin, low (positive) levels for EpCAM, and negative for CD45. One aliquot was preincubated with PI3K inhibitor GDC-0941 at 10 uM and another was modulated with 200 ng/mL EGF for 5 minutes at 37° C. Another aliquot of whole blood contained no HT-1376 cells or other reagents. BD phosflow fix/lyse reagent was used followed by methanol. EGF was used as a modulator to induce pAKT and pERK responses, 9.4 and 3.7 fold responses respectively.

pleural effusion cells = assay: Culture of pleural effusion cells (MCSF-04) in presence and absence of EGF; format: cell-based, human
Procedure: as §2
Cells in culture: 1 million cells were plated in two wells of a 24-well plate in the presence and absence of EGF. The cells visually appeared healthy after 48 hrs in culture with some cells with elongated appearance like an epithelial cells. Some very large round cells were also observed. At day 8, both cultures had adherent and non-adherent cells. Counts were performed. The well without EGF contained 400,000 viable, non-adherent cells while the well in the presence +EGF contained 800,000. The patient specimen contained 15.87% epithelial cells that were mostly non-apoptotic. The DNA index is 1.37 indicating the epithelial cells are aneuploid.

HT-1376 cell line = assay: Control cell line HT-1376 processed with the ascites sample, EGF-induced p-Erk; format: cell-based; settings: HT-1376 control cell line
Procedure: as §1
The cell line control has what appears to be a lower basal p-ERK level, however one must be careful when comparing absolute fluorescent levels between different cell types (ie, cell line vs primary cells) due to differences in autofluoresence and degree of non-specific antibody binding. […] The DNA index is near 1.0 indicating these cells are not aneuploid.

CS(=O)(=O)N1CCN(Cc2cc3nc(-c4cccc5[nH]ncc45)nc(N4CCOCC4)c3s2)CC1 [GDC-0941]
prevention of EGF-induced p-AKT and p-ERK signaling ([1]; BC samples, GDC-0941 200 nM added 1 hr prior to EGF): preventable
effect on EGF-induced p-AKT signaling ([2]; MCSF-04 epithelial cells, EGF added after incubation with GDC-0941): attenuated; also recorded: Attenuation
effect on basal p-AKT signaling ([2]; MCSF-04 epithelial cells, GDC-0941 incubation): attenuated
effect on basal (unstim) p-AKT level ([3]; MCSF-02, 200 nM GDC-0941): inability of the PI3K inhibitor to decrease p-AKT beyond the basal
effect on EGF-induced p-AKT signaling ([3]; MCSF-02, 1 hour pre-incubation with 200 nM GDC-0941): attenuated
basal p-ERK, unstimulated condition versus GDC containing sample ([3]; MCSF-02 epithelial cells): higher than the GDC containing sample
effect on EGF-induced p-Akt signaling ([4]; MCSF-06 epithelial cells): Attenuation; also recorded: attenuated
effect on basal p-Akt signaling ([4]; MCSF-06 epithelial cells): attenuated
effect on p-ERK signaling ([4]; MCSF-06 epithelial cells): but not the p-ERK signaling
effect on EGF-induced p-Akt signaling ([5]; MCSF-015 epithelial cells): Attenuation; also recorded: attenuated
effect on basal p-Akt signaling ([5]; MCSF-015 epithelial cells): attenuated
effect on p-ERK signaling ([5]; MCSF-015 epithelial cells): but not the p-ERK signaling
effect on EGF-induced signaling in the positive samples ([6]; each of the 4 positive ascites or pleural effusion cases): inhibited

CCOC(=O)[C@@H](N)CCC(=O)N[C@@H](CSCc1ccccc1)C(=O)N[C@@H](C(=O)OCC)c1ccccc1 [TLK-199]
hematologic response in trial (MDS patients): hematologic improvement in all three hematopoietic lineages
toxicities in trial (MDS patients): limited to infusion reactions, nausea, chills and bone pain

EGF: Epidermal growth factor, growth factor used as modulator to induce p-AKT and p-ERK
EGF-induced p-AKT and p-ERK signaling, increase over baseline ([1]; 3/10 BC evaluable bladder wash samples, 5 minute stimulation with EGF): 2-3 fold
EGF-induced signaling in NC specimens ([1]; non-cancer (NC) bladder wash specimens, 5 minute stimulation with EGF): no EGF-induced signaling was observed
EGF-induced pAKT response (HT-1376 cells): 9.4 fold
EGF-induced pERK response (HT-1376 cells): 3.7 fold
EGF induction of p-AKT and p-ERK in epithelial cells ([2]; MCSF-04 pleural effusion, EGF 5 min., 37° C.): strong
viable, non-adherent cells per well at day 8 (pleural effusion cells; 1 million cells plated, 24-well plate, presence of EGF (well without EGF 400,000)): 800,000 cells
proliferation in culture (pleural effusion cells; MCSF-04 cells, EGF induced condition): Proliferation was observed
EGF induction of p-AKT in epithelial cells ([3]; MCSF-02 ascites): strong
EGF induction of p-Erk in epithelial cells ([3]; MCSF-02 ascites): no significant increase above baseline; also recorded: no p-Erk induction above baseline was detected
increase in p-AKT levels after EGF stimulation ([3]; MCSF-02 ascites epithelial cells, 10 mins. EGF stimulation): 9 fold
EGF induction of p-Erk in control cell line (HT-1376 cell line): observed
EGF induction, above basal signaling, of p-Akt and p-ERK in epithelial cells ([4]; MCSF-06, EGF 5 min., 37° C.): strong
EGF induction, above basal signaling, of p-Akt and p-ERK in epithelial cells ([5]; MCSF-015, EGF 5 min., 37° C.): strong
samples in which epithelial cells with inducible EGF signaling were identified ([6]; ascites or pleural effusion samples): ⅘
